What was measured:
Assay type in all cases: biochemical
[1] = target: T1, BdDHS2 (3-deoxy-D-arabino-heptulosonate 7-phosphate synthase) (Brachypodium distachyon, UniProt I1I809); experiment: recombinant purified enzyme, DHS activity (PEP consumption at […] nm); conditions: read-out: IC50 / (μM Agn)
T1 construct: gene LOC100821423; without the predicted plastid transit peptide

[2] = target: T2, BdTyrAnc (non-canonical arogenate dehydrogenase) (Brachypodium distachyon, UniProt I1GYB3); experiment: Michaelis-Menten kinetics of recombinant purified enzyme (Km)
T2 construct: gene LOC100829970; without the predicted plastid transit peptide, poly-histidine tag
T2 sequence (I1GYB3 51-361): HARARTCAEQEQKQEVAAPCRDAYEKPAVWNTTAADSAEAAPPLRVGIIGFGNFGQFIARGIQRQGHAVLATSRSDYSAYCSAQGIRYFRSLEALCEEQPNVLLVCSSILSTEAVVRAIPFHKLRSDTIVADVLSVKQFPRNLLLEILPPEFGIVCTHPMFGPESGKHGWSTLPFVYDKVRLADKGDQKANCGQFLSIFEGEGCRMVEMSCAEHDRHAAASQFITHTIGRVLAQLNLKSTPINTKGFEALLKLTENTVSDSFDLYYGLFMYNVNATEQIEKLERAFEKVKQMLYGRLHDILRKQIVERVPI

[3] = target: T3, BdDHS1a (3-deoxy-D-arabino-heptulosonate 7-phosphate synthase) (Brachypodium distachyon, UniProt I1GSB3); experiment: recombinant purified enzyme, DHS activity (PEP consumption at […] nm); conditions: read-out: IC50 / (μM Agn)
T3 construct: gene LOC100823133; without the predicted plastid transit peptide

[4] = target: T1, BdDHS2 (3-deoxy-D-arabino-heptulosonate 7-phosphate synthase); experiment: recombinant purified enzyme, DHS activity assay; conditions: read-out: IC50 / (μM Trp)
[5] = target: T4, BdTyrA2 (arogenate dehydrogenase) (Brachypodium distachyon, UniProt I1GWX1); experiment: recombinant purified enzyme, arogenate dehydrogenase assay (NADPH at […] nm); Ki calculated from IC50 and Km; conditions: read-out: Ki / (μM tyrosine)
T4 construct: gene LOC100833753; without the predicted plastid transit peptide, poly-histidine tag
T4 sequence (I1GWX1 56-365): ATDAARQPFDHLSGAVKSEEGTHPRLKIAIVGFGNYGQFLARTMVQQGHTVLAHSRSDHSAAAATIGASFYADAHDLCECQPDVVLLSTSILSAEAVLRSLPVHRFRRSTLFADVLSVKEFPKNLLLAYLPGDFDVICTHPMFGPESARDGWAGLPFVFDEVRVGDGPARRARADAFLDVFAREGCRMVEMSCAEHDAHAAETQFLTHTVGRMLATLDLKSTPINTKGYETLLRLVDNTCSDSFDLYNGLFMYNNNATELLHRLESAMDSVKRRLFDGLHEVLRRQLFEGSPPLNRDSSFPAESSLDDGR

[6] = target: T2, BdTyrAnc (non-canonical arogenate dehydrogenase); experiment: as above; conditions: read-out: Ki / (μM tyrosine)

T1 sequence (I1I809 51-503): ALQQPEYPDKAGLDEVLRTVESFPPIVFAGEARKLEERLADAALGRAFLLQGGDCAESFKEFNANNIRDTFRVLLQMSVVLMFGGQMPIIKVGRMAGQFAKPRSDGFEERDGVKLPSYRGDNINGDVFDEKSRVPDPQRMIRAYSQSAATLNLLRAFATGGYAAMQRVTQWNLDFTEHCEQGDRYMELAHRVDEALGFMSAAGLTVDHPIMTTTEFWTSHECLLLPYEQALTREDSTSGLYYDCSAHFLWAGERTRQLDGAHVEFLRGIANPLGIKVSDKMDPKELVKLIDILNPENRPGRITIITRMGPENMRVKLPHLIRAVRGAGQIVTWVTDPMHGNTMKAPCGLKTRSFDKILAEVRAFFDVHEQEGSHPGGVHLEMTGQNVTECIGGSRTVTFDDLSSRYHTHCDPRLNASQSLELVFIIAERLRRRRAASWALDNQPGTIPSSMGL
T3 sequence (I1GSB3 46-537): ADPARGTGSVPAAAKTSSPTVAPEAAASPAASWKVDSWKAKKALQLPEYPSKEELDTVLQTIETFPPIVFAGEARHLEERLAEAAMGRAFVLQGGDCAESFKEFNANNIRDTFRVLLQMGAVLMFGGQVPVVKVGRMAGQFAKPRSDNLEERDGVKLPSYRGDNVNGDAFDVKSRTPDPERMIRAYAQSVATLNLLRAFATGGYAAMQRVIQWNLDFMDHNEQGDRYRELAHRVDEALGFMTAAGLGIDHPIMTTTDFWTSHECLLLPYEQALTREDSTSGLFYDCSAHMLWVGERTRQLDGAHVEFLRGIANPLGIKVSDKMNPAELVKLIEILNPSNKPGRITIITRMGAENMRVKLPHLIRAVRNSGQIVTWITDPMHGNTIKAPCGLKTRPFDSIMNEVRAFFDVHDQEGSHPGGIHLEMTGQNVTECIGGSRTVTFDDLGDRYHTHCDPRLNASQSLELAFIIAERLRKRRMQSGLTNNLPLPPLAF

## N[C@@H](C[C@]1(C(=O)O)C=C[C@@H](O)C=C1)C(=O)O [arogenate]
[1]
  IC50: 91 ± 11 µM
[2]
  Km: 0.13 ± 0.04 mM
[3]
  IC50: 285 ± 24 µM

## N[C@@H](Cc1c[nH]c2ccccc12)C(=O)O [tryptophan]
[4]
  IC50: 120 ± 4 µM

## N[C@@H](Cc1ccc(O)cc1)C(=O)O [tyrosine]
[5]
  Ki: 8 ± 2 µM
[6]
  Ki: 64 ± 25 µM

— article PMC10636026, “Coordinated regulation of the entry and exit steps of aromatic amino acid biosynthesis supports the dual lignin pathway in grasses” (Nature Communications, 2023)
